# According to ChEMBL document CHEMBL4346735, “Discovery and pharmacological evaluation of indole derivatives as potent and selective RORγt inverse agonist for multiple autoimmune conditions” (Bioorg Med Chem Lett, 2019):
# Columns and labels:
# [1] = Metabolic stability in dog hepatocytes assessed as parent compound remaining after 60 mins; assay type: ADME, cell-based, Canis lupus familiaris, Hepatocyte; settings: read-out: Stability
# Mus musculus [2] = assay: (§1) Immunosuppressive activity in MOG (35 to 55 residues)/pertussis toxin-induced experimental allergic encephalomyelitis C57BL/6J mouse model assessed as reduction in IL-22 gene expression in spinal cord at 30 mg/kg, po bid measured at day 23 post MOG immunization/pertusis immunization relative to control; assay type: functional; settings: 552 h
# Mus musculus [3] = assay: as §1, with “IL-17A” for “IL-22”, “19” for “23”; assay type: functional; settings: 456 h
# [4] = Metabolic stability in mouse liver microsomes assessed as parent compound remaining at 1 uM preincubated for 5 mins followed by NADPH addition after 30 mins by LC-MS/MS analysis; assay type: ADME, Microsome; settings: read-out: Stability
# [5] = target: T1, Nuclear receptor ROR-gamma (Mus musculus, UniProt P51450); assay: Transrepression of RORgammat in Balb/c mouse splenocytes assessed as reduction in anti-CD3/anti-CD28 stimulated IL-17 level measured after 48 hrs in presence of anti-CD3/anti-CD28 by ELISA; assay type: cell-based
# T1 sequence (P51450 whole entry): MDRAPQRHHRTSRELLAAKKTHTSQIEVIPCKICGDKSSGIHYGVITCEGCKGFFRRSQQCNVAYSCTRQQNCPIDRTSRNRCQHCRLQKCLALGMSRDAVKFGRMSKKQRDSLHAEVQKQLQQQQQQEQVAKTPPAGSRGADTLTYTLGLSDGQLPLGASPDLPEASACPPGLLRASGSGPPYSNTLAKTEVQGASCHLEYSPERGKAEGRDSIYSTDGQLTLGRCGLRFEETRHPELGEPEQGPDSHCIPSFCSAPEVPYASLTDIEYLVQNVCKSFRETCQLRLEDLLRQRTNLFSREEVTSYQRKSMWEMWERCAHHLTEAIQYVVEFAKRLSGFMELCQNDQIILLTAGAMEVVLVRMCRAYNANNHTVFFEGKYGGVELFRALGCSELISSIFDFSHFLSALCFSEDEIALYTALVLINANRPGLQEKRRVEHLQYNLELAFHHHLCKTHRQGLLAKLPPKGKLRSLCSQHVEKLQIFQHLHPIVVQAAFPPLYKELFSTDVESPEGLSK
# [6] = Metabolic stability in simulated gastric fluid assessed as compound remaining after 15 mins; assay type: ADME; settings: read-out: Stability
# Mus musculus [7] = assay: Immunosuppressive activity in MOG (35 to 55 residues)/pertussis toxin-induced experimental allergic encephalomyelitis C57BL/6J mouse model assessed as reduction in disease severity score at 10 mg/kg, po bid measured at day 23 relative to dexamethasone; assay type: functional; settings: 552 h
# [8] = Metabolic stability in simulated intestinal fluid assessed as compound remaining after 60 mins; assay type: ADME; settings: read-out: Stability
# [9] = Clearance in mouse at 3 mg/kg, iv; assay type: ADME, organism-based; settings: in vivo
# Mus musculus [10] = assay: as §1, with “CCR6” for “IL-22”, “19” for “23”; assay type: functional; settings: 456 h
# Mus musculus [11] = assay: Immunosuppressive activity in MOG (35 to 55 residues)/pertussis toxin-induced experimental allergic encephalomyelitis C57BL/6J mouse model assessed as reduction in disease severity score at 30 mg/kg, po bid measured at day 23 relative to dexamethasone; assay type: functional; settings: 552 h
# Mus musculus [12] = assay: Inhibition of anti-CD3-induced IL-17A level in Balb/c mouse plasma at 10 mg/kg, po treated prior to stimulation with anti-CD3 for 3 hrs relative to control; assay type: functional
# [13] = Metabolic stability in simulated intestinal fluid assessed as compound remaining after 2 hrs; assay type: ADME; settings: read-out: Stability
# [14] = Metabolic stability in human liver microsomes assessed as parent compound remaining at 1 uM preincubated for 5 mins followed by NADPH addition after 30 mins by LC-MS/MS analysis; assay type: ADME, Microsome; settings: read-out: Stability
# [15] = Transrepression of RORgammat in cytostim stimulated human whole blood assessed as suppression of IL-17 secretion incubated for 24 hrs; assay type: tissue-based
# [16] = Metabolic stability in rat liver microsomes assessed as parent compound remaining at 1 uM preincubated for 5 mins followed by NADPH addition after 30 mins by LC-MS/MS analysis; assay type: ADME, Microsome; settings: read-out: Stability
compound,measurement,setting,value
O=C(O)c1ccc(-n2cc(C(=O)c3c(Cl)cccc3Cl)c3cccc(F)c32)cc1,remaining at 1 h,[1],51%
same,inhibition in vivo at 30 mg/kg,Mus musculus [2],24%
same,inhibition in vivo at 30 mg/kg,Mus musculus [3],30%
same,"remaining at 0.5 h, 1 µM",[4],78%
same,IC50,[5],500 to 503 nM
same,remaining at […],[6],84%
same,inhibition in vivo at 10 mg/kg,Mus musculus [7],31%
same,remaining at 1 h,[8],100%
same,clearance,[9],23.4 mL/min/kg
same,inhibition in vivo at 30 mg/kg,Mus musculus [10],60%
same,inhibition in vivo at 30 mg/kg,Mus musculus [11],39%
same,inhibition in vivo at 10 mg/kg,Mus musculus [12],17%
same,remaining at 2 h,[13],99%
same,"remaining at 0.5 h, 1 µM",[14],88%
same,IC50,[15],490 nM
same,"remaining at 0.5 h, 1 µM",[16],100%
